pKi: −log10 of the molar value.
Key:
HDAC8 = conditions: read-out: Ki for HDAC8; cited from earlier work
human HDAC8 [1] = molecular target: T1, human HDAC8 (Homo sapiens, UniProt Q9BY41); assay: Isothermal titration calorimetry; format: binding
T1 sequence (Q9BY41 1-377): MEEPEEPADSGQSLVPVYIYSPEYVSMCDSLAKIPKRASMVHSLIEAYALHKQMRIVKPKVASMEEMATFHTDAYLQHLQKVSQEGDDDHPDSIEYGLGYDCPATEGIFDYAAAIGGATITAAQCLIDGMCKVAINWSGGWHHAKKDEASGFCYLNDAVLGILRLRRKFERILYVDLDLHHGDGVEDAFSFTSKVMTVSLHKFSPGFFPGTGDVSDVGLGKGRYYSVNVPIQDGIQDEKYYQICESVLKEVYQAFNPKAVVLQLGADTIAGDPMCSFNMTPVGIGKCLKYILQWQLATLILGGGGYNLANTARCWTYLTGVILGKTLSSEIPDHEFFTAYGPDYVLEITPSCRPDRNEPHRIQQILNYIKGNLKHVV

human HDAC8 [2] = molecular target: T1, human HDAC8; assay: Temperature-dependent ITC; format: binding; conditions: for temp (K), where ΔG° = ΔH°: interpolated from the ΔCp° plots, TΔS° = 0
[3] = Tris-HCl buffer (pH 7.5), 25 °C
[4] = difference versus SAHA, Table 1 conditions

| stoichiometry (human HDAC8 [1]; [3]) | ΔG°obs (human HDAC8 [1]; [3]) | temp (K), where ΔG° = ΔH° (human HDAC8 [2]) | Structure (SMILES) | pKi (HDAC8) | also measured |
| --- | --- | --- | --- | --- | --- |
| – | – | – | O=C(CCCc1ccccc1)NO [4-PBHA] | 5.73 | – |
| – | – | – | Cn1cc(C(=O)c2ccccc2)cc1C=CC(=O)NO [APHA] | 6.22 | – |
| 0.9 ± 0.1 | –8.0 ± 0.4 kcal/mol | 341 K | CC(NC(=O)CCCc1ccc2ccc3cccc4ccc1c2c34)C(=O)NO (stereo not shown) [MH-12/4, N-(1-Hydroxycarbamoyl-ethyl)-4-pyren-1-yl-butyramide] | – | TΔS°obs (human HDAC8 [1]; [3]): 5.3 ± 0.4 kcal/mol; ΔH°obs (human HDAC8 [1]; [3]): –2.72 ± 0.3 kcal/mol; binding enthalpy less favorable than that of SAHA by (human HDAC8 [1]; [4]): 8.2 kcal/mol; binding entropy (TΔS°) more favorable than that of SAHA by (human HDAC8 [1]; [4]): 7.8 kcal/mol; ΔCp° (human HDAC8 [2]; 5–25 °C, Tris-HCl buffer, slope of ΔH°obs vs temperature): –0.13 ± 0.02 kcal mol^–1 K^–1 |
| 0.9 ± 0.1 | –8.4 ± 0.3 kcal/mol | 288 K | O=C(CCCCCCC(=O)Nc1ccccc1)NO [SAHA, suberoylanilide hydroxamic acid] | – | higher favorable binding enthalpy compared to that of TSA (human HDAC8 [1]; Table 1 conditions): 2 kcal/mol; stoichiometry of the enzyme–SAHA complex (human HDAC8 [1]; control ITC titration for every batch of enzyme): 0.9–1 |
| – | – | – | O=C(CCCCCCC(=O)Nc1cccnc1)NO [pyroxamide] | 6.00 | – |
